For 35 compounds, IC50 results are on record in patent US20260176270A1 (Exelixis, Inc., priority 2022, published 2026).

Read-outs that look alike come from different tables or passages of the source. Bounds are passed on as bounds.

One test has as its target T1, PKMYT1 (Homo sapiens, UniProt Q99640).
T1 construct: PKMYT1 (93 kD, full length, N-terminal GST tag from Signal Chem); GST (N); purchased Signal Chem
T1 sequence (Q99640 1-499): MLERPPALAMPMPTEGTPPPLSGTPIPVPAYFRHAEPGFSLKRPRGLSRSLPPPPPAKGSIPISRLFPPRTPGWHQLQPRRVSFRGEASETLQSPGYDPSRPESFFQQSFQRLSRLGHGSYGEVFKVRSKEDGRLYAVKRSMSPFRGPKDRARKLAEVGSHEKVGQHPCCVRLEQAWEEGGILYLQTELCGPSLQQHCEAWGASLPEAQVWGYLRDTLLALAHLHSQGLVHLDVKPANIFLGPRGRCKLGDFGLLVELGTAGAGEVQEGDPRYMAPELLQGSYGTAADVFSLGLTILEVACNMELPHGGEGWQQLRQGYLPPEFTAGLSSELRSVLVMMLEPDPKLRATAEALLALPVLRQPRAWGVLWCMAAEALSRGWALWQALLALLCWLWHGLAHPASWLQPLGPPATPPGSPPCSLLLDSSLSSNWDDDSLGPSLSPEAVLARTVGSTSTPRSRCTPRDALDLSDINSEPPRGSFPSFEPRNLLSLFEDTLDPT
As to the kind of experiment: ADP-Glo PKMYT1 ATP-depletion assay. As to conditions: 50 nM PKMYT1, 13.3 nM CDK1, read-out: Biochemical IC50. In a few lines:
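Full-length N-terminal GST-tagged PKMYT1 (50 nM) with GST-CDK1 (13.3 nM) as substrate and 88 µM ATP, in Hepes buffer with MgCl2, MnCl2, DTT and BSA; DMSO <1%. Incubated 120 min at RT. ADP formed was quantified by ADP-Glo luminescence and used to derive biochemical IC50.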

The subject of test [1] is phosphorylation of CDK1 at Thr14 in HCC1806 cells. Description: Cell lysate AlphaLISA assay measuring inhibition of phosphorylation of CDK1 Thr14. Type of test: cell-based. Particulars: read-out: Cellular IC50. In a few lines:
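HCC1806 cells seeded overnight, then treated 4 h at 37 °C, 5% CO2 with compounds in DMSO; washed and lysed, lysates frozen overnight at −80 °C. CDK1 Thr14 phosphorylation read by AlphaLISA SureFire Ultra; data normalized to DMSO (0% inhibition) and 3 μM reference compound to give IC50.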

As to `Cc1c(O)cccc1-c1c(N)c(C(N)=O)cc2nccnc12` [Compound 73, 7-Amino-8-(3-hydroxy-2-methyl-phenyl)quinoxaline-6-carboxamide], the IC50 at PKMYT1 is below 50 nM; in test [1] (Homo sapiens, HCC1806, 4 h), 50 to 500 nM.
Take `Cc1c(-c2c(N)c(C(N)=O)cc3nccnc23)ccc(F)c1O` (atropisomer, axis not shown) [Compound 307]: the IC50 on PKMYT1 was 1000 to 5000 nM; in test [1] (4 hours), at least 5000 nM.
Consider `Cc1ncc(O)c(C)c1-c1c(N)c(C(N)=O)nc2cccnc12` [Compound 256], for which the IC50 was 1000 to 5000 nM at PKMYT1 and at least 5000 nM in test [1] (Homo sapiens, HCC1806, 4 h).
With `Cc1c(O)cccc1-c1c(N)c(C(N)=O)cc2cccnc12` (single isomer, unassigned) [Compound 63], the IC50 at PKMYT1 was 1000 to 5000 nM; in test [1] (4 hours) it was at least 5000 nM.
For `COc1ccc2nc(C(N)=O)c(N)c(-c3cccc(O)c3C)c2n1` (atropisomer, axis not shown) [Compound 174], the IC50 on PKMYT1 was below 50 nM; in test [1] (4 hours) it was 50 to 500 nM.
On to `Cc1n[nH]c2cccc(-c3c(N)c(C(N)=O)cc4nccnc34)c12` (single isomer, unassigned) [Compound 119, (P)-7-amino-8-(3-methyl-1H-indazol-4-yl)quinoxaline-6-carboxamide], for which the IC50 (at PKMYT1; in test [1] (4 hours)) was at least 5000 nM throughout.
In the case of `NC(=O)c1nc2cccnc2c(-c2cccc3c2CC(=O)N3)c1N` [Compound 293], the IC50 at PKMYT1 was at least 5000 nM; in test [1] (Homo sapiens, HCC1806, 4 h), at least 5000 nM.
In the case of `Cc1cnc2cc(C(N)=O)c(N)c(-c3c(C)ccc(O)c3C)c2n1` (atropisomer, axis not shown) [Compound 188], the results for the IC50 (on PKMYT1; in test [1] (4 hours)) were below 50 nM and 50 to 500 nM, respectively.
As to `Cc1cnc2c(-c3c(C)ccc(O)c3C)c(N)c(C(N)=O)cc2n1` [Compound 217], the IC50 is below 50 nM at PKMYT1 and 50 to 500 nM in test [1] (4 hours).
With `Cc1c(C#N)cncc1-c1c(N)c(C(N)=O)nc2cccnc12` [Compound 317], the IC50 on PKMYT1 was 1000 to 5000 nM; in test [1] (Homo sapiens, HCC1806, 4 h), at least 5000 nM.
In the case of `Cc1c(O)cccc1-c1c(N)c(C(N)=O)nc2cccc(C(N)=O)c12` [Compound 338], the IC50 on PKMYT1 was 50 to 500 nM; in test [1] (Homo sapiens, HCC1806, 4 h), 1000 to 5000 nM.
On to `Cc1n[nH]c2cccc(-c3c(N)c(C(N)=O)cc4nccnc34)c12` [Compound 109, 7-Amino-8-(3-methyl-1H-indazol-4-yl)quinoxaline-6-carboxamide], for which the IC50 is 50 to 500 nM at PKMYT1 and at least 5000 nM in test [1] (Homo sapiens, HCC1806, 4 h).
For the compound `NC(=O)c1nc2cccnc2c(-c2cncnc2C(F)(F)F)c1N` [Compound 253], the IC50 on PKMYT1 is 1000 to 5000 nM; in test [1] (Homo sapiens, HCC1806, 4 h), at least 5000 nM.
For the compound `Cc1ccc(-c2c(N)c(C(N)=O)nc3cccnc23)c(C)c1O` [Compound 292], the IC50 lay within 50 to 500 nM at PKMYT1 and 500 to 1000 nM in test [1] (4 hours).
For the compound `Cc1[nH]nc2cccc(-c3cc(C(N)=O)nc4ccccc34)c12` [Compound 19, 4-(3-Methyl-2H-indazol-4-yl)quinoline-2-carboxamide], the IC50 on PKMYT1 is at least 5000 nM; in test [1] (Homo sapiens, HCC1806, 4 h), at least 5000 nM.
As for `NC(=O)c1cc2nccnc2c(-c2cccc(O)c2Cl)c1N` [Compound 97, 7-Amino-8-(2-chloro-3-hydroxyphenyl)quinoxaline-6-carboxamide], the IC50 at PKMYT1 was below 50 nM; in test [1] (Homo sapiens, HCC1806, 4 h) it was 50 to 500 nM.
In the same order, the values of `NC(=O)c1cc(-c2cccc3[nH]ncc23)c2ccccc2n1` [Compound 14, 4-(1H-Indazol-4-yl)quinoline-2-carboxamide] are at least 5000 nM and at least 5000 nM.
In the case of `Cc1c(O)cccc1-c1c(N)c(C(N)=O)nc2cc(C(F)(F)F)ccc12` (atropisomer, axis not shown) [Compound 148], the IC50 (at PKMYT1; in test [1] (4 hours)) was at least 5000 nM each time.
Take `NC(=O)c1cc2nccnc2c(-c2cccc3cncn23)c1N` [Compound 316]: the IC50 was 500 to 1000 nM at PKMYT1 and at least 5000 nM in test [1] (Homo sapiens, HCC1806, 4 h).
On to `NC(=O)c1cc2nccnc2c(-c2cccc(O)c2F)c1N` [Compound 120, 7-Amino-8-(2-fluoro-3-hydroxyphenyl)quinoxaline-6-carboxamide], for which the IC50 lay in the range of 50 to 500 nM at PKMYT1 and 50 to 500 nM in test [1] (Homo sapiens, HCC1806, 4 h).
For `COc1ccc2nc(C(N)=O)c(N)c(-c3cc(O)ncc3C)c2n1` [Compound 315], the IC50 at PKMYT1 is at least 5000 nM; in test [1] (Homo sapiens, HCC1806, 4 h), at least 5000 nM.
Turning to `Cc1c(F)cncc1C1=c2ncccc2=NC(C(N)=O)C1N` (stereo not shown) [Compound 226], the results for the IC50 (at PKMYT1; in test [1] (4 hours)) were below 50 nM and 500 to 1000 nM, respectively.
With `Cc1ccc(-c2c(N)c(C(N)=O)nc3cccnc23)c(C)c1O` (atropisomer, axis not shown) [Compound 287], the IC50 (at PKMYT1; in test [1] (4 hours)) was at least 5000 nM throughout.
In the case of `Cc1c(O)cccc1-c1c(N)c(C(N)=O)cc2ncccc12` (atropisomer, axis not shown; (P)) [Compound 69, (P)-6-amino-5-(3-hydroxy-2-methylphenyl)quinoline-7-carboxamide], the figures for the IC50 (on PKMYT1; in test [1] (4 hours)) were 1000 to 5000 nM and at least 5000 nM, respectively.
For the compound `Cc1ccc(O)c(C)c1-c1c(N)c(C(N)=O)nc2nccnc12` (single isomer, unassigned) [Compound 127, (P)-7-Amino-8-(3-hydroxy-2,6-dimethylphenyl)pyrido[2,3-b]pyrazine-6-carboxamide], the IC50 (at PKMYT1; in test [1] (4 hours)) was below 50 nM each time.
As for `NC(=O)c1nc2cccnc2c(-c2cccc3c2CCN3)c1N` [Compound 160], the IC50 is at least 5000 nM on PKMYT1 and 500 to 1000 nM in test [1] (Homo sapiens, HCC1806, 4 h).
For `Cc1nc2cc(C(N)=O)c(N)c(-c3cccc(O)c3C)c2nc1C` [Compound 91, 7-Amino-8-(3-hydroxy-2-methylphenyl)-2,3-dimethylquinoxaline-6-carboxamide], the IC50 on PKMYT1 lay within 50 to 500 nM; in test [1] (Homo sapiens, HCC1806, 4 h) it was 50 to 500 nM.
Take `NC(=O)c1nc2cccnc2c(-c2ccnc3[nH]ncc23)c1N` [Compound 191]: the IC50 at PKMYT1 is 1000 to 5000 nM; in test [1] (Homo sapiens, HCC1806, 4 h), at least 5000 nM.
For the compound `Cc1c(O)cccc1-c1c(N)c(C(N)=O)cc2nc(C)c(=O)n(C)c12` (atropisomer, axis not shown) [Compound 171], the IC50 is 50 to 500 nM on PKMYT1 and 1000 to 5000 nM in test [1] (4 hours).
In the same order, the values of `Cc1c(O)cccc1-c1c(N)c(C(N)=O)cc2nc(C(F)(F)F)c(O)nc12` (atropisomer, axis not shown) [Compound 136] are at least 5000 nM and at least 5000 nM.
On the same counts, the results for `Cc1ccc(O)c(C)c1-c1c(N)c(C(N)=O)nc2cccnc12` (single isomer, unassigned) [Compound 10, (M)-3-amino-4-(3-hydroxy-2,6-dimethylphenyl)-1,5-naphthyridine-2-carboxamide] are 500 to 1000 nM and 1000 to 5000 nM.
As for `Cc1c(O)cccc1-c1c(N)c(C(N)=O)nc2cc(C(F)(F)F)cnc12` (atropisomer, axis not shown) [Compound 166], the values for the IC50 (on PKMYT1; in test [1] (4 hours)) were below 50 nM and 50 to 500 nM, respectively.
On to `Cc1c(O)cccc1-c1c(N)c(C(N)=O)nc2cccnc12` [Compound 2, 3-Amino-4-(3-hydroxy-2-methylphenyl)-1,5-naphthyridine-2-carboxamide], for which the IC50 at PKMYT1 was below 50 nM; in test [1] (Homo sapiens, HCC1806, 4 h), 50 to 500 nM.
On to `NC(=O)c1nc2cccnc2c(-c2cnc(N)cc2C(F)(F)F)c1N` [Compound 183], for which the IC50 was at least 5000 nM at PKMYT1 and at least 5000 nM in test [1] (Homo sapiens, HCC1806, 4 h).
On to `COc1cncc(-c2c(N)c(C(N)=O)nc3cccnc23)c1C` [Compound 153], for which the results for the IC50 (at PKMYT1; in test [1] (4 hours)) were 50 to 500 nM and 500 to 1000 nM, respectively.
